Experimental data as given in PMC10111022, “Comparison of pharmacological inhibitors of lysine-specific demethylase 1 in glioblastoma stem cells reveals inhibitor-specific efficacy profiles” (Frontiers in Neurology, 2023).

Columns and labels:
NK or T-cells = assay: Flow cytometry of peripheral blood NK and T-cell subsets at day 50; type: in vivo, athymic nude mice; conditions: peripheral blood mononuclear cells
Description: Once confirmation of intracranial tumor engraftment at 7 days post-engraftment, the mice were equally randomized into groups to receive either GSK-LSD1 or the vehicle control. The mice received GSK-LSD1 1 mg/kg diluted in DMSO and PBS (5 and 95%, respectively) via intraperitoneal injection (200 μL/mouse) while the control mice received the untreated vehicle in parallel. In accordance with the approved IACUC protocol (No: 638-RN03) at MD Anderson Cancer Center, treatment continued until the mice succumbed to tumor burden and were found in a moribund condition as determined by neurological impairment (hydrocephalus, seizures, inactivity, and/or ataxia) or morbidity (hunched posture or weight loss). At this time mice were euthanized by both carbon dioxide exposure and cervical dislocation. Flow cytometric characterization of immune cell subsets was carried out in blood samples obtained from mice (four control mice and six GSK-LSD1 mice) in each group at day 50 via cardiac puncture and the sample was processed using Ficoll (GE Healthcare; Chicago, IL) centrifugation to collect the peripheral blood mononuclear cells (PBMCs). Next, PBMCs were stained with the Ghost Dye Violet (Tonbo; San Diego, CA) and then incubated with antibodies at 4°C for 25 min before analysis. […]

MDA-GSC 311 = assay: Cell viability dose response (IC50), MDA-GSC 311; type: cell-based; conditions: Homo sapiens, mean of three independent experiments
Description: (§1) MDA-GSCs were plated at 50,000 cells/well into 12-well plates at and allowed to grow for 5 days until neurospheres were formed. The cells were then treated with either TCP, GSK-LSD1, or RN-1 at various concentrations for 5 days. Next, the cells were collected and neurospheres were dissociated with Accutase (BioLegend; San Diego, CA). Cell viability was determined using a trypan dye exclusion assay and read with the Vi-Cell XR Cell Viability Analyzer (Beckman Coulter; Brea, CA). NHAs were plated at 50,000 cells/well into 12-well plates and allowed to adhere overnight. The following day, NHAs were treated with the LSD1 inhibitors. After 5 days, the cells were detached using TrypLE and assessed with the trypan blue dye exclusion assay.
(§2) The alamarBlue cell viability (Bio-Rad; Hercules, CA) was performed on the MDA-GSCs according to the manufacturer’s protocol. The cells were plated at 5,000 cell/well into a 96-well plate and allowed to grow for 5 days. After 5 days, the alamarBlue reagent was added and fluorescence was measured with the Synergy 2 (BioTek Instruments; Winooski, VT) plate reader according to the manufacturer’s protocol.

MDA-GSC 7–2 = assay: Cell viability dose response (IC50), MDA-GSC 7–2; type: cell-based; conditions: Homo sapiens, mean of three independent experiments
Description: as §1, §2

c1ccc([C@@H]2C[C@H]2NC2CCNCC2)cc1 [GSK-LSD1]
cytotoxic effects on NK or T-cells (NK or T-cells): does not have cytotoxic effects | IC50 (MDA-GSC 311): > 750 µM | IC50 (MDA-GSC 7–2): 518 µM
